Here are results for 29 molecules from patent US20180024136A1, “Development of ABCG2-Sensitive Fluorescent Probe For Isolation of ABCG2low Neural Stem/Progenitor Cells” (National University of Singapore, priority 2015, published 2018).

This data set can be described thus: Spectroscopic properties of CF library (absorbance, emission, quantum yield, extinction coefficient). The class given is physicochemical. The conditions noted are these: 100 μM in ethanol; for QY (Φ): reference fluorescein. As to the method:
All the chemicals and solvents were purchased from Sigma Aldrich, Alfa Aesar, Fluka, MERCK, Tocris or Acros, and used without further purification. Normal phase purifications were carried out using Merck Silica Gel 60 (particle size: 0.040-0.063 mm, 230-400 mesh). Analytical characterization was performed on a HPLC-MS (Agilent-1200 series) with a DAD detector and a single quadrupole mass spectrometer (6130 series) with an ESI probe. ^1H-NMR and ^13C-NMR spectra were recorded on Bruker Avance 300 MHz NMR spectrometers, and chemical shifts are expressed in parts per million (ppm) and coupling constants are reported as a J value in Hertz (Hz). High resolution mass spectrometry (HRMS) data was recorded on a Micro mass VG 7035 (Mass Spectrometry Laboratory at National University of Singapore (NUS)). Spectroscopic and quantum yield data were measured on spectroscopic measurements, performed on a fluorometer and UV/VIS instrument, Synergy 4 of Bioteck Company. The slit width was 1 nm for both excitation and emission, and the data analysis was performed using GraphPrism 5.0.

Regarding `CN(Cc1ccccc1)C(=O)c1ccc(-c2c3cc(Cl)c(=O)cc-3oc3cc(O)c(Cl)cc23)cc1` [CF-B6], the “Abs (nm)” value is 520 nm, the “Em (nm)” value worked out at 558 nm and the “QY (Φ)” value is 0.77.
Regarding `CCC(NC(=O)c1ccc(-c2c3cc(Cl)c(=O)cc-3oc3cc(O)c(Cl)cc23)cc1)c1ccccc1` (stereo not drawn) [CF-A3], the “Abs (nm)” value turned out to be 520 nm, the “Em (nm)” value turned out to be 559 nm and the “QY (Φ)” value is 0.40.
For `CCCCCCCCCCCCCCCCCCN(C)C(=O)c1ccc(-c2c3cc(Cl)c(=O)cc-3oc3cc(O)c(Cl)cc23)cc1` [CF-H11], in that order: 520 nm, 552 nm and 0.32.
Turning to `O=C(c1ccc(-c2c3cc(Cl)c(=O)cc-3oc3cc(O)c(Cl)cc23)cc1)N1CCCC1` [CF-B7], the “Abs (nm)” value was 520 nm, the “Em (nm)” value stood at 556 nm and the “QY (Φ)” value is on record as 0.70.
Turning to `COc1cccc(CCNC(=O)c2ccc(-c3c4cc(Cl)c(=O)cc-4oc4cc(O)c(Cl)cc34)cc2)c1OC` [CF-E7], the “Abs (nm)” value stood at 520 nm, the “Em (nm)” value came out at 557 nm and the “QY (Φ)” value was determined as 0.46.
With `O=C(NCCc1ccccc1Cl)c1ccc(-c2c3cc(Cl)c(=O)cc-3oc3cc(O)c(Cl)cc23)cc1` [CF-H8], the “Abs (nm)” value is listed as 520 nm, the “Em (nm)” value was 556 nm and the “QY (Φ)” value was 0.51.
As for `CCCCC(CC)CNC(=O)c1ccc(-c2c3cc(Cl)c(=O)cc-3oc3cc(O)c(Cl)cc23)cc1` (stereo not drawn) [CF-B9], the “Abs (nm)” value stood at 520 nm, the “Em (nm)” value stood at 558 nm and the “QY (Φ)” value is reported as 0.60.
For `CN(C(=O)c1ccc(-c2c3cc(Cl)c(=O)cc-3oc3cc(O)c(Cl)cc23)cc1)C1CCCCC1` [CF-A10], in that order: 520 nm, 558 nm and 0.63.
For `CCCCCCNC(=O)c1ccc(-c2c3cc(Cl)c(=O)cc-3oc3cc(O)c(Cl)cc23)cc1` [CF-H4], the “Abs (nm)” value is given as 520 nm, the “Em (nm)” value was 556 nm and the “QY (Φ)” value was 0.63.
For the molecule `CCCCCCCNC(=O)c1ccc(-c2c3cc(Cl)c(=O)cc-3oc3cc(O)c(Cl)cc23)cc1` [CF-B11], the “Abs (nm)” value was found to be 520 nm, the “Em (nm)” value is recorded as 558 nm and the “QY (Φ)” value is given as 0.66.
Take `CCCCCN(CCCCC)C(=O)c1ccc(-c2c3cc(Cl)c(=O)cc-3oc3cc(O)c(Cl)cc23)cc1` [CF-G3]: the “Abs (nm)” value is reported as 520 nm, the “Em (nm)” value was determined as 552 nm and the “QY (Φ)” value is on record as 0.63.
As for `CC1CCCC(NC(=O)c2ccc(-c3c4cc(Cl)c(=O)cc-4oc4cc(O)c(Cl)cc34)cc2)C1C` (stereo not drawn) [CF-H2], the “Abs (nm)” value is 520 nm, the “Em (nm)” value stood at 556 nm and the “QY (Φ)” value stood at 0.65.
For `CCCC(C)NC(=O)c1ccc(-c2c3cc(Cl)c(=O)cc-3oc3cc(O)c(Cl)cc23)cc1` (stereo not drawn) [CF-G5], the “Abs (nm)” value came to 520 nm, the “Em (nm)” value is 557 nm and the “QY (Φ)” value was 0.38.
Regarding `O=C(c1ccc(-c2c3cc(Cl)c(=O)cc-3oc3cc(O)c(Cl)cc23)cc1)N1CCc2ccccc2C1` [CF-A5], the “Abs (nm)” value is 520 nm, the “Em (nm)” value came out at 556 nm and the “QY (Φ)” value was found to be 0.75.
Take `CCCCN(CC)C(=O)c1ccc(-c2c3cc(Cl)c(=O)cc-3oc3cc(O)c(Cl)cc23)cc1` [CF-B4]: the “Abs (nm)” value is recorded as 520 nm, the “Em (nm)” value is given as 556 nm and the “QY (Φ)” value stood at 0.90.
Consider `CC1CN(C(=O)c2ccc(-c3c4cc(Cl)c(=O)cc-4oc4cc(O)c(Cl)cc34)cc2)CC(C)O1` (stereo not drawn) [CF-D3], for which the “Abs (nm)” value is 520 nm, the “Em (nm)” value worked out at 555 nm and the “QY (Φ)” value is given as 0.47.
Take `O=C(NCc1ccc(OC(F)(F)F)cc1)c1ccc(-c2c3cc(Cl)c(=O)cc-3oc3cc(O)c(Cl)cc23)cc1` [CF-A8]: the “Abs (nm)” value was 520 nm, the “Em (nm)” value is listed as 558 nm and the “QY (Φ)” value was 0.37.
The matching figures for `CCCCCCCCCCCCCNC(=O)c1ccc(-c2c3cc(Cl)c(=O)cc-3oc3cc(O)c(Cl)cc23)cc1` [CF-A4]: 520 nm, 558 nm and 0.26.
Consider `C#CCNC(=O)c1ccc(-c2c3cc(Cl)c(=O)cc-3oc3cc(O)c(Cl)cc23)cc1` [CF-F11], for which the “Abs (nm)” value is given as 520 nm, the “Em (nm)” value was 559 nm and the “QY (Φ)” value is 0.21.
For the molecule `O=C(NCc1c(F)cccc1F)c1ccc(-c2c3cc(Cl)c(=O)cc-3oc3cc(O)c(Cl)cc23)cc1` [CF-A7], the “Abs (nm)” value turned out to be 520 nm, the “Em (nm)” value was 560 nm and the “QY (Φ)” value is recorded as 0.58.
Consider `CC1CCCCC1NC(=O)c1ccc(-c2c3cc(Cl)c(=O)cc-3oc3cc(O)c(Cl)cc23)cc1` (stereo not drawn) [CF-C7], for which the “Abs (nm)” value is on record as 520 nm, the “Em (nm)” value was determined as 558 nm and the “QY (Φ)” value stood at 0.42.
For `CC1CCC(NC(=O)c2ccc(-c3c4cc(Cl)c(=O)cc-4oc4cc(O)c(Cl)cc34)cc2)CC1` (stereo not drawn) [CF-H5], in that order: 520 nm, 557 nm and 0.67.
As for `CC(C)N(Cc1ccccc1)C(=O)c1ccc(-c2c3cc(Cl)c(=O)cc-3oc3cc(O)c(Cl)cc23)cc1` [CF-C2], the “Abs (nm)” value is 520 nm, the “Em (nm)” value came out at 559 nm and the “QY (Φ)” value is 0.78.
For `CCCCC(CC)COCCCNC(=O)c1ccc(-c2c3cc(Cl)c(=O)cc-3oc3cc(O)c(Cl)cc23)cc1` (stereo not drawn) [CF-B5], in that order: 520 nm, 559 nm and 0.54.
As for `CCCCN(CCCC)C(=O)c1ccc(-c2c3cc(Cl)c(=O)cc-3oc3cc(O)c(Cl)cc23)cc1` [CF-E3], the “Abs (nm)” value is listed as 520 nm, the “Em (nm)” value was 554 nm and the “QY (Φ)” value is on record as 0.66.
With `O=C(NC1CCCC1)c1ccc(-c2c3cc(Cl)c(=O)cc-3oc3cc(O)c(Cl)cc23)cc1` [CF-E5], the “Abs (nm)” value was determined as 520 nm, the “Em (nm)” value worked out at 556 nm and the “QY (Φ)” value is recorded as 0.58.
With `O=C(NCCCN1CCCC1=O)c1ccc(-c2c3cc(Cl)c(=O)cc-3oc3cc(O)c(Cl)cc23)cc1` [CF-D2], the “Abs (nm)” value was determined as 520 nm, the “Em (nm)” value was 557 nm and the “QY (Φ)” value is 0.61.
Consider `O=C(NC1CC1)c1ccc(-c2c3cc(Cl)c(=O)cc-3oc3cc(O)c(Cl)cc23)cc1` [CF-B2], for which the “Abs (nm)” value stood at 520 nm, the “Em (nm)” value is on record as 558 nm and the “QY (Φ)” value is reported as 0.53.
For `O=C(NCCC(c1ccccc1)c1ccccc1)c1ccc(-c2c3cc(Cl)c(=O)cc-3oc3cc(O)c(Cl)cc23)cc1` [CF-D10], in that order: 520 nm, 558 nm and 0.59.
